In patent US20230233617A1, “METHODS FOR DIFFERENTIATING STEM CELLS INTO DOPAMINERGIC PROGENITOR CELLS” (JZ CELL TECHNOLOGIES AB, priority 2020, published 2023):

Assays:
hESCs = assay: Conversion of hPSCs into NSCs (OCT4, SOX1, PAX6 expression) in dSMADi cultures; assay type: cell-based, human
Method: To explore the activities of RA on hESCs directed to adopt a neural fate in response to dSMADi^14, we treated cultures with 200 nM all-trans RA for the first 1, 2, 3 or 4 days of differentiation (RA^1D, RA^2D, RA^3D, RA^4D) (FIG. 1a) and monitored fate and identity of cells at different stages by immunoblotting, quantitative immunocytochemistry, qPCR or RNA-sequencing (RNA-seq). […] Induction of SOX1 and PAX6 at low levels occurred at 3 DDC (FIG. 1b). OCT4 and SOX1 were co-expressed by cells between 3-4 DDC (FIG. 1b, c; FIG. 7a (Supplementary FIG. 1a)) showing that the conversion of hPSCs into NSCs in response to dSMADi-treatment encompass a protracted time-window over which expression of pluripotency- and neural-specific genes overlap. […] By 7 DDC, SOX1 and neural marker NESTIN were expressed at similar levels in dSMADi-only and in dSMADi+RA^2D cultures (FIG. 1d). […] Endodermal or mesodermal lineage markers were not expressed (FIG. 7b (Supplementary FIG. 1b)). In dSMADi+RA^2D conditions, prompt suppression of OCT4 and fast upregulation of SOX1 was attained within a concentration range of RA between 50-500 nM (FIG. 1g). […] Thus, combining dSMADi treatment with exposure of hPSCs to RA for 48 hours or longer promotes a rapid and switch-like transition from pluripotency into a NSC-state.
80-90% confluent PSCs cultures were rinsed twice with PBS, treated with EDTA (0.5 mM in PBS) for 5-7 min, and resuspended into single cell suspension in PBS. Cells were spin down at 400 g and resuspended in N2B27 medium (DMEM/F12: Neurobasal (1:1), 0.5×N2 and 0.5×B27 (plus vitamin A) supplements, 1×nonessential amino acids, 1% GlutaMAX, 55 μM β-mercaptoethanol-all from Thermo Fisher Scientific) containing 5 μM SB431542 (Miltenyi Biotech) and 2.5 μM DMH1 (Santa Cruz Biotech) (dual SMAD inhibition), and 10 μM ROCK inhibitor (for the first 48 hours after seeding). Cells were seeded on VTN (2 μg/cm^2) and Fibronectin (FN) (2 μg/cm^2) (Sigma) coated surface at a density of 60,000-80,000 cells/cm^2 for RA- and RA-analogues based experiments, and 20,000 cells/cm^2 for CHIR99021 experiments. […]

hPSC-derived NSCs = assay: Regional identity of hPSC-derived NSCs at 9 DDC after RA pulse in dSMADi conditions; assay type: cell-based, human
Method: (§1) Cells were fixed for 12 min at room temperature (RT) in 4% paraformaldehyde in PBS, rinsed 3 times in PBST (PBS with 0.1% Triton-X100), and blocked for 1 hour at RT with blocking solution (3% FCS/0.1% Triton-X100 in PBS). Cells were then incubated with primary antibodies overnight at 4° C., followed by incubation with fluorophore-conjugated secondary antibodies for 1 hour at RT. Both primary and fluorophore-conjugated secondary antibodies were diluted in blocking solution. Primary antibodies used are listed in Supplementary Table 1. Appropriate Alexa (488, 555, 647)-conjugated secondary antibodies (Molecular Probes) were used.

[1] = tested on: hPSC-derived ventral midbrain dopaminergic progenitors; assay: Specification of caudal midbrain identity (EN1 immunocytochemistry); assay type: cell-based, human; details: RA^2D+SAG
Method: (a) (a) Immunocytochemical analysis of ventral MB progenitor identities at 14 DDC. […] Nuclei of cells visualized with DAPI staining. (b) Immunocytochemistry of dopaminergic neuron marker TH and caudal midbrain marker EN1 expression in 40 DDC cultures differentiated in indicated conditions.
as §1
Mechanisms underlying specification of midbrain dopamine neuron subtypes remains poorly resolved, but is likely to involve sub-patterning of ventral midbrain dopaminergic progenitors along the mediolateral and rostro-caudal axes of the midbrain (Brignani, S, and Pasterkamp, R. J., Front. Neuroanat. 11, 1-18 (2017)). WNT1 signaling emanating from the isthmic organizer at the midbrain-hindbrain boundary establish polarity of midbrain progenitors along the rostro-caudal axis by inducing a caudal^HIGH-to-rostral^LOW expression gradient of the homeodomain proteins EN1 and EN2 (Wurst, W. and Bally-Cuif, L. Nat. Rev. Neuroscience 2, 99-108 (2001)).

CYP26 = details: cited from earlier work

## CC1=C(/C=C/C(C)=C/C=C/C(C)=C/C(=O)O)C(C)(C)CCC1 [RA, all-trans retinoic acid]
hESCs; 200 nM RA for one day (dSMADi+RA^1D)
  rapid OCT4 suppression and fast upregulation of SOX1: not sufficient to promote rapid OCT4 suppression nor fast upregulation of SOX1
hESCs; dSMADi and 200 nM RA for two days or longer
  OCT4 expression: expression of OCT4 had essentially been extinguished by 3 DDC
hESCs; dSMADi+RA^2D, 3 DDC
  concentration range of RA giving prompt suppression of OCT4 and fast upregulation of SOX1: 50 to 500 nM
hPSC-derived NSCs; 200 nM RA for 1 day (RA^1D)
  regional identity of NSCs: FB-like character
hPSC-derived NSCs; 200 nM RA for 2 days (RA^2D)
  regional identity of NSCs: FOXG1^−/OTX2^+/HOXA2^− MB-like character
hPSC-derived NSCs; 200 nM RA for 3 days (RA^3D)
  regional identity of NSCs: FOXG1^−/OTX2^−/HOXA2^+/HOXB4^− rostral HB
hPSC-derived NSCs; 200 nM RA for 4 days (RA^4D)
  regional identity of NSCs: FOXG1^−/OTX2^−/HOXA2^+/HOXB4^+ caudal HB
[1]; 14DDC
  identity of ventral midbrain progenitors (EN1): LMX1A^+/OTX2^+/EN1^− identity
[1]; 40DDC
  EN1 expression in TH+ dopamine neurons: a small proportion of TH^+ dopamine neurons expressed EN1
CYP26
  susceptibility to CYP26-mediated oxidation: substrates for CYP26-mediated oxidation
